Measurements from patent US9682960B2 (priority 2013, dated 2017).
Several values for one entry are separate records, joined by “and”; a condition that tells them apart may be missing. Equal entries are not always repeated. Entries after “also recorded” stand apart in the source; their conditions may differ. Where two headings read alike, the source gives them in different places.

Experiments:
[1] = tested on: PSA levels in human prostatic carcinoma LNCaP cells; experiment: Prostate specific antigen (PSA) in LNCaP cells with or without R1881; type: cell-based; settings: for LNCaP Cells Antiandrogenic activity (PSA) % inhibition at 10^−7M: R1881-stimulated, 10^−7M of compound; for inhibition at 0.1 µM: Homo sapiens, read-out: LNCaP Cells Antiandrogenic activity (PSA) % inhibition at 10^−7M, R1881-stimulated, 10^−7M of compound; for inhibition at 0.1 µM / times more potent than bicalutamide in blocking R1881-stimulated PSA secretion: LNCaP; for times more potent than bicalutamide in blocking R1881-stimulated PSA secretion: versus bicalutamide; for stimulation at 10^−7M of basal PSA levels in LNCaP cells (in words): basal (no R1881)
Description: LNCaP cells were cultured as previously described (Qi et al. 2001). In brief, the LNCaP cells were cultured for 6 days in 1.0 ml RPMI 1640 supplemented with hormone-depleted 0.25% FCS before each experiment. At the start of the experiment, half of the medium (0.5 ml) was replaced with 0.5 ml of identical medium containing the appropriate concentrations of tested compounds, in the presence or absence of 1.0 nM of R1881. After 72 h of incubation of LNCaP cells with compounds, 0.5 ml of culture medium was removed for PSA determination. PSA levels were measured using the PSA [^125I] IRMA KIT (REF: RK-10CT) from Izotop (Institute of Isotopes Ltd, Budapest, Hungary).

Rat Androgen Receptor = Rat Androgen Receptor (Rattus norvegicus (Rat), UniProt P15207); experiment: Androgen receptor assay: [3H]R1881 displacement, rat prostate cytosol; type: binding; settings: for times more potent than OH-flutamide in the rat AR assay: versus OH-flutamide; for times more potent than bicalutamide in the rat AR assay: versus bicalutamide
Description: On the morning of the binding assay, ventral prostates collected from 24 h-gonadectomized rats were homogenized in buffer A (1 g of tissue in 5 mL) and the homogenate was centrifuged as described above.
Androgen binding is measured using the hydroxylapatite (HAP) assay. In brief, the radioactive steroid [^3H]R1881 solubilized in ethanol is diluted with buffer B (10 mM Tris-HCl, 1.5 mM EDTA disodium salt, 10 mM α-monothioglycerol, pH 7.4). Aliquots of the cell or prostate cytosol preparation (0.1 ml) are then incubated with 5 nM [^3H]R1881 (0.1 ml, ˜100 000 cpm) in the presence or absence of the indicated concentrations of unlabeled compounds (0.1 ml, prepared in buffer B containing 30% ethanol) for 16-18 h at 0-4° C. Triamcinolone acetonide (TAC; 100 nM) is added to mask progesterone receptors. Unbound steroids are separated by incubation for 40 min at 0-4° C. with 0.3 ml HAP prepared in buffer P (50 mM Tris-HCl, 10 mM KH2PO4, pH 7.4). After incubation with HAP and 10 min of centrifugation at 1000×g, the pellet is washed 3 times with 1 ml of buffer P. Thereafter, the radioactivity is extracted from the pellet by incubation at room temperature for 60 min with 1 ml of ethanol. After centrifugation, the supernatant is decanted into a scintillation vial and the pellet is extracted again with ethanol. After the addition of scintillation liquid, the radioactivity is measured in a liquid scintillation counter.
Relative binding affinity (RBA) was calculated by the following formula: RBA (%) [IC50(R1881)/IC50 (compound)]×100 B—In Vitro Assay of Androgenic/Antiandrogenic Activity

Human Androgen Receptor = Human Androgen Receptor (Homo sapiens (Human), UniProt P10275); experiment: Androgen receptor assay: [3H]R1881 displacement, cytosol of HEK-293 cells transfected with hAR (hydroxylapatite assay); type: binding; settings: for Human Androgen Receptor Binding RBA (%) R1881 = 100: relative binding affinity; for times more binding to the human androgen receptor than the corresponding hydantoin: thiohydantoin versus hydantoin (EM-9052 vs EM-9150; EM-7105 vs EM-7333); for affinity for the androgen receptor (in words): SAR discussion; for times more potent than bicalutamide to displace R1881 from the human AR: versus bicalutamide
[2] = tested on: Shionogi mouse mammary carcinoma cells; experiment: In vitro androgenic/antiandrogenic activity: proliferation of Shionogi cells with or without DHT; type: cell-based; settings: for stimulation at 10^−7M on basal Shionogi cell proliferation (in words): basal (no DHT)
Androgen Receptor = experiment: Overall classification (antiandrogen / SARM) in the models studied
[3] = tested on: castrated (CX) immature male rats; experiment: Systemic androgenic (agonistic) activity in orchidectomized (CX) immature male rats; type: in vivo, rat; settings: for CX Agonistic activity % Stimulation Bulbo / CX Agonistic activity % Stimulation SV / CX Agonistic activity % Stimulation Prostate: 0.1 mg/rat/po, 7 days; for CX Agonistic activity % Stimulation Bulbo: bulbocavernosus muscles weight; for CX Agonistic activity % Stimulation SV: seminal vesicles weight; for CX Agonistic activity % Stimulation Prostate: ventral prostate weight; for agonistic activity on ventral prostate weight (in words): daily oral dosing for 7 days, immature castrated rat
[4] = Oral absorption, Experiment 2: plasma, intraprostatic and intramuscular concentrations after 0.5 mg EM-9150/animal in castrated male rats; type: in vivo; settings: Sprague-Dawley, rat, 0.5 mg/animal; for concentration at 7 h: po
Description: Castrated male Sprague-Dawley rats (Crl:CD(SD)Br) weighing 275-375 g were used for pharmacokinetic studies. Animals were fasted (access to water only) from around 16 h00 the afternoon prior to the dosing day.
Blood samples (˜0.5 mL/timepoint) were collected by jugular venipuncture on animals under isoflurane anesthesia at 1, 2, 3, 4, 7 and 24 h post-dosing. Blood samples were put into tubes containing EDTA(K3) as anticoagulant and centrifuged at 4° C. for 10 min at 1700-2400 g. The resulting plasma was frozen on dry ice and kept at −80° C. pending analysis. […] Prostates and bulbocavernosus muscles were frozen in liquid nitrogen and kept at −80° C. until being used. A buffer and an ethanol-acetone solution were added to the tissue and homogenized with a Polytron. The supernatant was collected, evaporated to dryness and reconstituted in buffer.
Intraprostatic and intramuscular concentrations of the compounds were also determined by LC-MS/MS.

[5] = relative binding affinity, R1881 = 100, prostate cytosol
[6] = DHT (0.3 nM)-stimulated cell number, read-out: Shionogi Antiandrogenic Activity IC50
[7] = Mus musculus, read-out: Shionogi Antiandrogenic Activity IC50, DHT (0.3 nM)-stimulated cell number
[8] = bulbocavernosus muscles, read-out: intramuscular concentration
[9] = plasma, read-out: plasma concentration
[10] = ventral prostate, read-out: intraprostatic concentration

Chain of Rat Androgen Receptor (P15207 whole entry, looked up): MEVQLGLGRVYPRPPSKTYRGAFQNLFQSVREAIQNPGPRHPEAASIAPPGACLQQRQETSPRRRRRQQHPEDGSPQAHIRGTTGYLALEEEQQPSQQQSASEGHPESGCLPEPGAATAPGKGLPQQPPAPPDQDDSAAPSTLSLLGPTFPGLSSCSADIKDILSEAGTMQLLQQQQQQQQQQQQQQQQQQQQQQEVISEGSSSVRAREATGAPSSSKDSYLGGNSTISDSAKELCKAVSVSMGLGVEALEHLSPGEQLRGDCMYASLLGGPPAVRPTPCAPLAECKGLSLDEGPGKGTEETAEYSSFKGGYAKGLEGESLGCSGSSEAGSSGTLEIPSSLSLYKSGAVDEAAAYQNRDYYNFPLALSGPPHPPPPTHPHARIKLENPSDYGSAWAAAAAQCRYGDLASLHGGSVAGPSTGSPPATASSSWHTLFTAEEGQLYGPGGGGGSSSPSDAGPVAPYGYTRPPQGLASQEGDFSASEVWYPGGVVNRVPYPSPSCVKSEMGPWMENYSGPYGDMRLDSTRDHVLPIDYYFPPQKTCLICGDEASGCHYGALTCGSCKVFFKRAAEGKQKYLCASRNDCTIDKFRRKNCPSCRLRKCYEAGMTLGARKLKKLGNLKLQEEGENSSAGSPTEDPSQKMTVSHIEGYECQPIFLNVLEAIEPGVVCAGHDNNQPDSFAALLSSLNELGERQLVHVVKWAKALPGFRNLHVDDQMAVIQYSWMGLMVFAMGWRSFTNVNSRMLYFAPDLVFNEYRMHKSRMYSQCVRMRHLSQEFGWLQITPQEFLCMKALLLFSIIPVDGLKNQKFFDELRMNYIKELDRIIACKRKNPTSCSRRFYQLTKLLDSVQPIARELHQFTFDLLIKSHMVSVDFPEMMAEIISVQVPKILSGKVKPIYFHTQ
Chain of Human Androgen Receptor (P10275 whole entry): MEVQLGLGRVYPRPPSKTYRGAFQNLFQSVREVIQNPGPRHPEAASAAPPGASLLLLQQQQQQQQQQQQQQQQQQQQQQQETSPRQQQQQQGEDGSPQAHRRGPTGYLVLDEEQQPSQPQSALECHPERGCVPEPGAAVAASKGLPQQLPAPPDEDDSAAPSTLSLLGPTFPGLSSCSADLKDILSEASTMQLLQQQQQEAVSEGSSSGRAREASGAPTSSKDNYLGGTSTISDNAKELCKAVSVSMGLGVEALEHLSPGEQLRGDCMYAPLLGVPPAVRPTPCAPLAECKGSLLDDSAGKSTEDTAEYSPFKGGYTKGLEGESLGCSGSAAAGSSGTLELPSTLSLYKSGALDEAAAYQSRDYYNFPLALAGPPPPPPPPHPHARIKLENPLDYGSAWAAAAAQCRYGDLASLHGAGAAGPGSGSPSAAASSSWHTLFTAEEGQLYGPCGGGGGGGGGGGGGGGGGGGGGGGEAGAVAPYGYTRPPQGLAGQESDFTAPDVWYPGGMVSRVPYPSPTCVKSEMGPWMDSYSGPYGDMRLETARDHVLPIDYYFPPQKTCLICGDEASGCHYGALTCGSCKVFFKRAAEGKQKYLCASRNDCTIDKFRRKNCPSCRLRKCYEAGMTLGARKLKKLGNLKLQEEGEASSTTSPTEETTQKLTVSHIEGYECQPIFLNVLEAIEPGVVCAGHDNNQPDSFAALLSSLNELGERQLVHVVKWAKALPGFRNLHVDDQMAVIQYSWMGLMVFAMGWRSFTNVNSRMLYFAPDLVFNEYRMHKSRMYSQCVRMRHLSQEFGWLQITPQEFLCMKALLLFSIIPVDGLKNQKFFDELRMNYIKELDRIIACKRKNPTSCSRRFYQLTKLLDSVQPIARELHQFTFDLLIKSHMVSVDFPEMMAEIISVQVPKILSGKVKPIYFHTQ

| SMILES | Human Androgen Receptor Binding RBA (%) R1881 = 100 (Human Androgen Receptor; transfected cells) | affinity for the androgen receptor (in words) (Human Androgen Receptor) | Human Androgen Receptor Binding RBA (%) R1881 = 100 (Human Androgen Receptor; […]) | classification as antiandrogen or SARM (in words) (Androgen Receptor) | CX Agonistic activity % Stimulation Bulbo [3] | CX Agonistic activity % Stimulation SV [3] | CX Agonistic activity % Stimulation Prostate [3] | IC50 [2, 7] [nM] | inhibition at 0.1 µM [1] [%] | other results |
| --- | --- | --- | --- | --- | --- | --- | --- | --- | --- | --- |
| CC(C)NCc1ccc(OCCCN2C(=S)N(c3ccc(C#N)c(C(F)(F)F)c3)C(=O)C2(C)C)cc1 [EM-7105, reference compound] | 41% and 41 ± 30% |  |  |  |  |  |  |  |  | LNCaP Cells Antiandrogenic activity (PSA) % inhibition at 10^−7M [1]: 26%; Rat Androgen Receptor Binding RBA (%) R1881 = 100 (Rat Androgen Receptor; [5]): 3.9%; times more binding to the human androgen receptor than the corresponding hydantoin (Human Androgen Receptor): around 140 times; IC50 [2, 6]: 9.4 nM |
| CCNCc1ccc(OCCCN2C(=S)N(c3ccc(C#N)c(C(F)(F)F)c3)C(=O)C2(C)C)cc1 [EM-7148, reference compound] | 11% and 11 ± 1% |  |  |  |  |  |  |  |  | LNCaP Cells Antiandrogenic activity (PSA) % inhibition at 10^−7M [1]: 33%; IC50 [2, 6]: 9.2 nM |
| Cc1c(N2C(=O)C(C)(C)N(CCCOc3ccc(-c4ccncc4)cc3)C2=S)ccc(C#N)c1C(F)(F)F [EM-8691] |  | high affinity | 525 ± 362 (n = 3) % | potent SARM | 163% | 24% | 39% | > 100 |  |  |
| Cc1c(N2C(=O)C(C)(C)N(CCCOc3ccc(-c4ccncc4)c(C(F)(F)F)c3)C2=S)ccc(C#N)c1C(F)(F)F [EM-8821] | 28.3% | decreased affinity |  | weaker SARM | 74% | 22% | 22% | 11.5 |  |  |
| CC1(C)C(=O)N(c2ccc(C#N)c(Cl)c2)C(=S)N1CCCOc1ccc(-c2ccncc2)cc1Cl [EM-9052] |  |  |  |  |  |  |  | 61 | 26 | times more binding to the human androgen receptor than the corresponding hydantoin (Human Androgen Receptor): 27 times |
| CC1(C)C(=O)N(c2ccc(C#N)c(Cl)c2)C(=O)N1CCCOc1ccc(-c2ccncc2)cc1 [EM-9116] |  | higher affinity | 9.2 ± 1.9 (n = 5) % | better antiandrogens |  |  |  | 17 ± 5 |  |  |
| CC1(C)C(=O)N(c2ccc(C#N)c(Cl)c2)C(=O)N1CCCOc1ccc(-c2ccncc2)cc1Cl [EM-9150] |  |  |  | antiandrogens | 1% | 0% | 0% |  | 57 | times more potent than bicalutamide in blocking R1881-stimulated PSA secretion [1]: 11.0 times and 10 times; stimulation at 10^−7M of basal PSA levels in LNCaP cells (in words) [1]: absence of stimulation; also recorded: no stimulation; times more inhibition of PSA levels in human LNCaP cells compared to the thiohydantoins ([1]; versus thiohydantoins of WO 2006/133567): ≥ 2 times; Rat Androgen Receptor Binding RBA (%) R1881 = 100 (Rat Androgen Receptor; [5]): 6.5%; times more potent than OH-flutamide in the rat AR assay (Rat Androgen Receptor): 65 times; times more potent than bicalutamide in the rat AR assay (Rat Androgen Receptor): 32 times; times more potent than bicalutamide to displace R1881 from the human AR (Human Androgen Receptor): 247 times; agonistic activity on ventral prostate weight (in words) [3]: no agonistic activity; concentration at 7 h [4, 8]: 1.2 ng/g; concentration at 7 h [4, 9]: 0.9 ng/mL; Kp at 7 h ([4]; prostate / plasma, oral, read-out: concentration in the rat prostate versus plasma): ~3; concentration at 7 h [4, 10]: 2.9 ng/g; stimulation at 10^−7M on basal Shionogi cell proliferation (in words) [2]: absence of stimulation |
| CC1(C)C(=O)N(c2ccc(C#N)c(Cl)c2)C(=O)N1CCCOc1ccc(-c2cc[n+]([O-])cc2)cc1Cl [EM-9156] |  |  |  | antiandrogens | 5% | 0% | 1% |  | ~50 | times more potent than bicalutamide in blocking R1881-stimulated PSA secretion [1]: 9.2 times and 10 times; stimulation at 10^−7M of basal PSA levels in LNCaP cells (in words) [1]: absence of stimulation; Rat Androgen Receptor Binding RBA (%) R1881 = 100 (Rat Androgen Receptor): 5.3%; times more potent than OH-flutamide in the rat AR assay (Rat Androgen Receptor): 53 times; times more potent than bicalutamide in the rat AR assay (Rat Androgen Receptor): 27 times; times more potent than bicalutamide to displace R1881 from the human AR (Human Androgen Receptor): 57 times; agonistic activity on ventral prostate weight (in words) [3]: no agonistic activity; concentration at 7 h [4, 8]: 12.7 ng/g; concentration at 7 h [4, 9]: 22.3 ng/mL; concentration at 7 h [4, 10]: 19.3 ng/g; stimulation at 10^−7M on basal Shionogi cell proliferation (in words) [2]: absence of stimulation |
| Cc1c(N2C(=O)N(CCCOc3ccc(-c4cc[n+]([O-])cc4)cc3Cl)C(C)(C)C2=O)ccc(C#N)c1Cl [EM-9252] |  |  | 96.3% | selective androgen receptor modulators | 105 ± 9 (n = 2) % | 29 ± 5 (n = 2) % | 46 ± 5 (n = 2) % | > 100 |  |  |
| Cc1c(N2C(=O)NC(C)(C)C2=O)ccc(C#N)c1Cl [EM-9289] |  |  | 1.0% | selective androgen receptor modulators | 138 ± 15 (n = 2) % | 38 ± 5 (n = 2) % | 50 ± 6 (n = 2) % | ~1000 |  |  |
